Assay results taken from ChEMBL document CHEMBL5113438, “Discovery of highly potent and selective CRBN-recruiting EGFRL858R/T790M degraders in vivo” (Eur J Med Chem, 2022).
Activity calls are given as the source filed them. The rule behind the calls is not given here.

Columns and labels:
[1] = Volume of distribution at steady state in Sprague-Dawley rat at 1 mg/kg, iv measured upto 24 hrs by LC-MS/MS analysis; type: ADME, organism-based; conditions: in vivo, read-out: Vdss
[2] = Cmax in Sprague-Dawley rat at 10 mg/kg, ip measured upto 24 hrs by LC-MS/MS analysis; type: ADME, organism-based; parameters: time < 24 hrs, dose 10 mg/kg, route ip; conditions: in vivo
[3] = system: HMEC; assay: Cytotoxicity activity against HMEC cells upto 300 uM incubated for 72 hrs by CCK-8 assay; type: toxicity, cell-based; conditions: human
[4] = Toxicity in BALB/c mouse xenografted with human NCI-H1299 cells assessed as change in body weight pretreated with compound at 10 mg/kg, ip administered once daily for 24 days and measured every 3 days […]; type: organism-based; conditions: in vivo, 576 h, time 24 day
[5] = Selectivity ratio IC50 for human NCI-H1299 cells expressing wild type EGFR to human NCI-H1975 cells expressing EGFR L858R/T790M; type: functional
[6] = AUC (0 to t) in Sprague-Dawley rat at 1 mg/kg, iv measured upto 24 hrs by LC-MS/MS analysis; type: ADME, organism-based; parameters: time < 24 hrs, dose 1 mg/kg, route iv; conditions: in vivo
[7] = Tmax in Sprague-Dawley rat at 10 mg/kg, ip measured upto 24 hrs by LC-MS/MS analysis; type: ADME, organism-based; conditions: in vivo
[8] = system: NCI-H1299; assay: Induction of apoptosis in human NCI-H1299 cells assessed as necrotic cells at 1.0 uM incubated for 48 hrs by AnnexinV-FITC/propidium iodide staining based flow cytometry analysis (reference value: 0.24 % ); type: functional
[9] = system: NCI-H1299; assay: Induction of apoptosis in human NCI-H1299 cells assessed as late apoptotic cells at 0.1 uM incubated for 48 hrs by AnnexinV-FITC/propidium iodide staining based flow cytometry analysis (reference value: 1.53 % ); type: functional
[10] = system: L02; assay: Cytotoxicity activity against human L02 cells upto 300 uM incubated for 72 hrs by CCK-8 assay; type: toxicity, cell-based; conditions: l02, 72 h
[11] = system: NCI-H1975; assay: Induction of apoptosis in human NCI-H1975 cells assessed as late apoptotic cells at 0.1 uM incubated for 48 hrs by AnnexinV-FITC/propidium iodide staining based flow cytometry analysis (reference value: 1.35 % ); type: functional
[12] = system: NCI-H1299; assay: Induction of apoptosis in human NCI-H1299 cells assessed as viable cells at 1.0 uM incubated for 48 hrs by AnnexinV-FITC/propidium iodide staining based flow cytometry analysis (reference value: 98.05 % ); type: functional; conditions: read-out: Activity
[13] = system: HCC827; assay: Antiproliferative activity against human NCI-HCC827 cells expressing EGFR del19 incubated for 72 hrs by CCK-8 assay; type: functional, cell-based; conditions: HCC827, 72 h
[14] = Half life in Sprague-Dawley rat at 10 mg/kg, ip measured upto 24 hrs by LC-MS/MS analysis; type: ADME, organism-based; conditions: in vivo
[15] = AUC (0 to infinity) in Sprague-Dawley rat at 10 mg/kg, ip measured upto 24 hrs by LC-MS/MS analysis; type: ADME, organism-based; parameters: time < 24 hrs, dose 10 mg/kg, route ip; conditions: in vivo
[16] = system: NCI-H1975; assay: Induction of cell cycle arrest in human NCI-H1975 cells assessed as accumulation of cells in G2/M phase by PI staining based flow cytometry method; type: functional; conditions: dose 0.1-1 µM, DDE = dose-dependent effect
[17] = system: NCI-H1975; assay: Antiproliferative activity against human NCI-H1975 cells expressing EGFR L858R/T790M incubated for 72 hrs by CCK-8 assay; type: functional, cell-based; conditions: NCI-H1975, 72 h
[18] = system: NCI-H1975; assay: Induction of apoptosis in human NCI-H1975 cells assessed as late apoptotic cells at 1.0 uM incubated for 48 hrs by AnnexinV-FITC/propidium iodide staining based flow cytometry analysis (reference value: 1.35 % ); type: functional
[19] = Toxicity in BALB/c mouse xenografted with human NCI-H1975 cells assessed as drug tolerability at 10 mg/kg, ip administered once daily for 24 days; type: organism-based; conditions: in vivo, 576 h, time 24 day
[20] = system: NCI-H1299; assay: Antiproliferative activity against human NCI-H1299 cells expressing wild type EGFR incubated for 72 hrs by CCK-8 assay; type: functional, cell-based; conditions: NCI-H1299, 72 h
[21] = system: Epidermal growth factor receptor (Homo sapiens), P00533 [L858R,T790M]; assay: Inhibition of EGFR L858R/T790M mutant phosphorylation in human NCI-H1975 cells at 1 uM measured after 48 hrs by Western blot assay; type: cell-based
Chain of Epidermal growth factor receptor (Homo sapiens), P00533 [L858R,T790M] (P00533 whole entry T790M/L858R, looked up): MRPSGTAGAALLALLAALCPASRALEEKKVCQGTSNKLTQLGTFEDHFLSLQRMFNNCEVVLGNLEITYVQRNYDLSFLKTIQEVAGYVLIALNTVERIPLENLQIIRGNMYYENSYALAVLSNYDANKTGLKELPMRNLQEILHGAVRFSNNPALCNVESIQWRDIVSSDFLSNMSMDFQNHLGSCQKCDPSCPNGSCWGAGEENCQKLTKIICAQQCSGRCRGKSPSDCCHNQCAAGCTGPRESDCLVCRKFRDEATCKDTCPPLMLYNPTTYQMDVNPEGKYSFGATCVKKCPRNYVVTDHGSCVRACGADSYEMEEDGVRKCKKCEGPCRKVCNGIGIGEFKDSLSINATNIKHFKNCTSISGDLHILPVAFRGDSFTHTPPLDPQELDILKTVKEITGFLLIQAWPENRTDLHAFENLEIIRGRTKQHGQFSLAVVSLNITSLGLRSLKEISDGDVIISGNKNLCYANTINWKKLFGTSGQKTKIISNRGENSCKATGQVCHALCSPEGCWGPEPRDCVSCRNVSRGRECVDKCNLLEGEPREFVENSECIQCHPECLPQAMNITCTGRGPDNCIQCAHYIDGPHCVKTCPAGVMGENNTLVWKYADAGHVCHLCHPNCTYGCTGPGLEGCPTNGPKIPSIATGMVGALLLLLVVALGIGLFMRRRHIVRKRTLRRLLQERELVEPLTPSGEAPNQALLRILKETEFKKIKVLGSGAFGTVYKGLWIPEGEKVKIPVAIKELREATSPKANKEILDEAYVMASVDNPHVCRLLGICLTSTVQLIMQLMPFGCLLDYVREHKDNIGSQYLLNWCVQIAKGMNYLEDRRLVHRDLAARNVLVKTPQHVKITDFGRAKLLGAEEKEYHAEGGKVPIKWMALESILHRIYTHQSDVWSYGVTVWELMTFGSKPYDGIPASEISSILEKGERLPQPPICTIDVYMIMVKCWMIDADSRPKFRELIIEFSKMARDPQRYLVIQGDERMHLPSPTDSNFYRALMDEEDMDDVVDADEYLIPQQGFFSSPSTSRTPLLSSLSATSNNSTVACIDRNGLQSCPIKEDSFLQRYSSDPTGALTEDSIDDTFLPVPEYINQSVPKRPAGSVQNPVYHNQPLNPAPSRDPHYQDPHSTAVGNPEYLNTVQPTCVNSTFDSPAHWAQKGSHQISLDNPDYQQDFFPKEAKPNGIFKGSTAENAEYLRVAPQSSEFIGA

[22] = Half life in Sprague-Dawley rat at 1 mg/kg, iv measured upto 24 hrs by LC-MS/MS analysis; type: ADME, organism-based; conditions: in vivo
[23] = Plasma protein binding in rat assessed as unbound fraction at 1 uM incubated for 4 hrs by rapid equilibrium dialysis method; type: ADME, cell-free; conditions: read-out: PPB (converted)
[24] = system: NCI-H1975; assay: Inhibition of ERK phosphorylation in human NCI-H1975 cells preincubated under serum starvation for 8 hrs followed by compound addition measured after 48 hrs by Western blot analysis; type: cell-based; conditions: dose 10-1000 nM, DDE = dose-dependent effect
[25] = Toxicity in BALB/c mouse xenografted with human NCI-H1975 cells assessed as change in body weight pretreated with compound at 10 mg/kg, ip administered once daily for 24 days and measured every 3 days […]; type: organism-based; conditions: in vivo, 576 h, time 24 day
[26] = AUC (0 to infinity) in Sprague-Dawley rat at 1 mg/kg, iv measured upto 24 hrs by LC-MS/MS analysis; type: ADME, organism-based; parameters: dose 1 mg/kg, time < 24 hrs, route iv; conditions: in vivo
[27] = system: NCI-H1975; assay: Induction of apoptosis in human NCI-H1975 cells assessed as viable cells at 0.1 uM incubated for 48 hrs by AnnexinV-FITC/propidium iodide staining based flow cytometry analysis (reference value: 96.2 % ); type: functional; conditions: read-out: Activity
[28] = system: NCI-H1975; assay: Induction of apoptosis in human NCI-H1975 cells assessed as necrotic cells at 1.0 uM incubated for 48 hrs by AnnexinV-FITC/propidium iodide staining based flow cytometry analysis (reference value: 3.28 % ); type: functional
[29] = system: NCI-H1299; assay: Induction of apoptosis in human NCI-H1299 cells assessed as necrotic cells at 0.1 uM incubated for 48 hrs by AnnexinV-FITC/propidium iodide staining based flow cytometry analysis (reference value: 0.24 % ); type: functional
[30] = target: Serine/threonine-protein kinase AKT (Homo sapiens) (UniProt P31751+Q9Y243+P31749); assay: Inhibition of Akt phosphorylation in human NCI-H1975 cells preincubated under serum starvation for 8 hrs followed by compound addition measured after 48 hrs by Western blot analysis; type: cell-based; conditions: dose 10-1000 nM, DDE = dose-dependent effect
Chain of Serine/threonine-protein kinase AKT (Homo sapiens) (P31749 whole entry, looked up): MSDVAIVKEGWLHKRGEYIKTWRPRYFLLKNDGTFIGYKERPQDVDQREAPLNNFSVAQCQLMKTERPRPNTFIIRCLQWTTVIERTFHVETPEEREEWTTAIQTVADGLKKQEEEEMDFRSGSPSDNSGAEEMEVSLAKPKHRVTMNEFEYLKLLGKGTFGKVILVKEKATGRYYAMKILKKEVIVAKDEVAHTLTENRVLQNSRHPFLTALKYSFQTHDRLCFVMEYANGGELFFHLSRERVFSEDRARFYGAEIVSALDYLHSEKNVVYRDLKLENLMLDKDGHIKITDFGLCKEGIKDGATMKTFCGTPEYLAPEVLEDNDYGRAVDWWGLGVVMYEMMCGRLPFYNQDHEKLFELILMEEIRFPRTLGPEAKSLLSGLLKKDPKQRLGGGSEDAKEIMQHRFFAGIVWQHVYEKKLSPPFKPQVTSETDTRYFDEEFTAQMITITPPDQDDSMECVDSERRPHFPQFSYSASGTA
Chain of Serine/threonine-protein kinase AKT (Homo sapiens) (P31751 whole entry, looked up): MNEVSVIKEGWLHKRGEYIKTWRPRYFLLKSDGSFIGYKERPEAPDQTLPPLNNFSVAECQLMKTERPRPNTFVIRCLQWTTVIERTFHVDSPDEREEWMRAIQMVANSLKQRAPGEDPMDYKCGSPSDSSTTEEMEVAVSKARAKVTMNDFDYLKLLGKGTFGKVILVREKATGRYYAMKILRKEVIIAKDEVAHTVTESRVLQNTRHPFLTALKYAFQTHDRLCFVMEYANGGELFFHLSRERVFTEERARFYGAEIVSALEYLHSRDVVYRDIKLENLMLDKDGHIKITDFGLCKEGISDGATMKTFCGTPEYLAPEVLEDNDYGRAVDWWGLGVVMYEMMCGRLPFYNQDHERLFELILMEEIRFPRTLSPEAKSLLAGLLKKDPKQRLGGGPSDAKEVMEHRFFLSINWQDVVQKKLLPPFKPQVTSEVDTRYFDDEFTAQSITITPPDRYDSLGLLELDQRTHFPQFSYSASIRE
Chain of Serine/threonine-protein kinase AKT (Homo sapiens) (Q9Y243 whole entry, looked up): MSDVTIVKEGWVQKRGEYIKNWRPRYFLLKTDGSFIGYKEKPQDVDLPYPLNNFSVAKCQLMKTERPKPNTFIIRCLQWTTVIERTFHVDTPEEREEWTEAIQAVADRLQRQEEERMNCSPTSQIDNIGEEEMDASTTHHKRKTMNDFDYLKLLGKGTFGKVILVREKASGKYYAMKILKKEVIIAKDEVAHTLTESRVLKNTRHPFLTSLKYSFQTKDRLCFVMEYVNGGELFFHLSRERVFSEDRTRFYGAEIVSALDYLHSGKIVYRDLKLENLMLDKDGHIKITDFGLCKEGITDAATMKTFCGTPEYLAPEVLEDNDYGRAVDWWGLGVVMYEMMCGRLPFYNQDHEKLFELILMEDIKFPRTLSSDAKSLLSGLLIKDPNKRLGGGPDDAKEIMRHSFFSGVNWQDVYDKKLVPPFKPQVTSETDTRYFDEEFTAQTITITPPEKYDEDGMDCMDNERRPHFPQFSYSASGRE

[31] = system: NCI-H1299; assay: Induction of apoptosis in human NCI-H1299 cells assessed as viable cells at 0.1 uM incubated for 48 hrs by AnnexinV-FITC/propidium iodide staining based flow cytometry analysis (reference value: 98.05 % ); type: functional; conditions: read-out: Activity
[32] = system: NCI-H1975; assay: Induction of apoptosis in human NCI-H1975 cells assessed as early apoptotic cells at 1.0 uM incubated for 48 hrs by AnnexinV-FITC/propidium iodide staining based flow cytometry analysis (reference value: 0.11 % ); type: functional
[33] = target: Protein cereblon/Epidermal growth factor receptor (Homo sapiens, UniProt P00533+Q96SW2, L858R/T790M); assay: Protac activity at CRBN/EGFR L858R/T790M mutant in human NCI-H1975 cells assessed as induction of EGFR degradation incubated for 72 hrs by Western blot analysis; type: cell-based
Chain of Protein cereblon/Epidermal growth factor receptor (P00533 25-1210 T790M/L858R limits assumed, stated change not applied): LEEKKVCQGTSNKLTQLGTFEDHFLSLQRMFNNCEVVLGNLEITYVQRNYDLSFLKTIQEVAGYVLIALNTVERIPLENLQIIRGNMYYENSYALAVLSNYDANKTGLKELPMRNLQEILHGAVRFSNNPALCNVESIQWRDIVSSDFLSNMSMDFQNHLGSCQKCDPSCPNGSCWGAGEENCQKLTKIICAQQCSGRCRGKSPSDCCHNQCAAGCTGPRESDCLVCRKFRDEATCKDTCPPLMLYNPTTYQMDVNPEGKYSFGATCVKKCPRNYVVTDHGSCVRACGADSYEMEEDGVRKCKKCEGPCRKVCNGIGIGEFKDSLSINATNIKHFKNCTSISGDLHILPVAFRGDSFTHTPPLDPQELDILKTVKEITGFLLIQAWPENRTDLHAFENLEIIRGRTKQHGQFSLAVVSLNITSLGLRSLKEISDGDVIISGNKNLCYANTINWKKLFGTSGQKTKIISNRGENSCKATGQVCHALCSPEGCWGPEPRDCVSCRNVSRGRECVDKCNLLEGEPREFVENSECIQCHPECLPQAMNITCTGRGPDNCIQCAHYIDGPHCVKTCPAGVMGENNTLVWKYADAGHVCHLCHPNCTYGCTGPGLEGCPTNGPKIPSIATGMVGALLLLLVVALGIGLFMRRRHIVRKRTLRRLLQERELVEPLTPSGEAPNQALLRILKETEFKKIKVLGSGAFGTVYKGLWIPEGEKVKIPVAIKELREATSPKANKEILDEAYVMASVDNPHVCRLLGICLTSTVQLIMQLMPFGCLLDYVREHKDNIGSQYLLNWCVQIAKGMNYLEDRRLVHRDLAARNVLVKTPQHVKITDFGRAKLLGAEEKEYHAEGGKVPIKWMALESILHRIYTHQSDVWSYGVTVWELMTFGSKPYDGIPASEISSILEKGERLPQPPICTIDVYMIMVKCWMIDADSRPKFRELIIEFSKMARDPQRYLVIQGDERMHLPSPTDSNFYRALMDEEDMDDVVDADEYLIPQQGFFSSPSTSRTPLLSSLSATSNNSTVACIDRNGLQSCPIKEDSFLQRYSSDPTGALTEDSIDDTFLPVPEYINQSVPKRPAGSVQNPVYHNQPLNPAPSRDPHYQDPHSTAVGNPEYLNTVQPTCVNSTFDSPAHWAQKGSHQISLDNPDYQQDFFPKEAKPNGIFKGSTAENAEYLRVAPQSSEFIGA
Chain of Protein cereblon/Epidermal growth factor receptor (Q96SW2 whole entry, stated change not applied): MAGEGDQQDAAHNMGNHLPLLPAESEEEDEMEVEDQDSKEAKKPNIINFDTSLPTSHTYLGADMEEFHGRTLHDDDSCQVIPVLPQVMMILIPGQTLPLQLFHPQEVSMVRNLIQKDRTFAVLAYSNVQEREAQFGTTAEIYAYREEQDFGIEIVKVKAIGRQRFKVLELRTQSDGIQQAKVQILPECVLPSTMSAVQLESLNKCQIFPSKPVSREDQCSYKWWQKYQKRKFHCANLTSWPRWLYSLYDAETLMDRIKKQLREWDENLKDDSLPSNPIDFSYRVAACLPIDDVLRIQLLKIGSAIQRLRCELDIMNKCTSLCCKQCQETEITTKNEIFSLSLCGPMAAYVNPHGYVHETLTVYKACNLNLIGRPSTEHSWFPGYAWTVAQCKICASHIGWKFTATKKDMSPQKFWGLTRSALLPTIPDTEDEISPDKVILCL

[34] = system: Epidermal growth factor receptor (Homo sapiens), P00533 [L858R,T790M]; assay: Inhibition of EGFR L858R/T790M mutant phosphorylation in human NCI-H1975 cells preincubated under serum starvation for 8 hrs followed by compound addition measured after 48 hrs by Western blot analysis; type: cell-based; conditions: dose 10-1000 nM, DDE = dose-dependent effect

SMILES | Vd [1] [L/kg] | Cmax [2] [ng/mL] | Activity [3] | Activity [4] | Ratio IC50 [5] | AUC(0-t) at 24 h [6] [ng·h/mL] | Tmax [7] [h] | Activity [8] [%] | Activity [9] [%] | Activity [10] | Activity [11] [%] | viability at 1 µM [12] [%] | IC50 [13] [nM] | half-life [14] [h] | AUC(0-inf) [15] [ng·h/mL] | Activity [16] | IC50 [17] [nM] | Activity [18] [%] | Activity [19] | IC50 [20] [nM] | further results
C#CCN(CCCC(=O)Nc1cccc2c1CN(C1CCC(=O)NC1=O)C2=O)CCN(C)c1cc(OC)c(Nc2nccc(-c3cn(C)c4ccccc34)n2)cc1NC(=O)C=C (stereo not drawn) | 7.87 | 128 | Non-Toxic | Non-Toxic | 2137 | 483 | 4.5 | 0.37 | 1.27 | Non-Toxic | 4.8 | 97.8 | 1120 | 1.85 | 973 | Dde | 46.8 | 25.1 | Non-Toxic | > 100000 | inhibition [21]: Active; half-life [22]: 2.64 h; fraction unbound at 4 h, 1 µM [23]: 0.002; inhibition [24]: Dde; Activity [25]: Non-Toxic; AUC ([26]; 24 h): 973 ng·h/mL; viability at 0.1 µM [27]: 85.6%; Activity [28]: 15.2%; Activity [29]: 0.48%; inhibition [30]: Dde; viability at 0.1 µM [31]: 98%; Activity [32]: 0.72%; EC50 [33]: 13.2 nM; inhibition [34]: Dde
C#CCN(CCC(=O)Nc1cccc2c1CN(C1CCC(=O)NC1=O)C2=O)CCN(C)c1cc(OC)c(Nc2nccc(-c3cn(C)c4ccccc34)n2)cc1NC(=O)C=C (stereo not drawn) | 7.38 | 197 | Non-Toxic | Non-Toxic | 1721 | 460 | 4.67 | 0.25 | 1.79 | Non-Toxic | 6.59 | 97.5 | 1210 | 2.17 | 1610 | Dde | 58.1 | 24.3 | Non-Toxic | > 100000 | inhibition [21]: Active; half-life [22]: 2.29 h; fraction unbound at 4 h, 1 µM [23]: 0.001; inhibition [24]: Dde; Activity [25]: Non-Toxic; AUC(0-inf) ([26]; Sprague-Dawley): 461 ng·h/mL; viability at 0.1 µM [27]: 90.8%; Activity [28]: 14.3%; Activity [29]: 0.39%; inhibition [30]: Dde; viability at 0.1 µM [31]: 97.7%; Activity [32]: 0.55%; EC50 [33]: 35.5 nM; inhibition [34]: Dde
